According to article PMC5651048, “Differential Resistance Mechanisms to Glyphosate Result in Fitness Cost for Lolium perenne and L. multiflorum” (Frontiers in Plant Science, 2017):

Test system: T1, EPSPS (5-enolpyruvlshikimate-3-phosphate synthase), Golf biotypes
T1 construct: native enzyme in leaf extract, not purified to homogeneity
Experiment: EPSPS activity in leaf extract, phosphate release (EnzChek Phosphate Assay)
Assay type: biochemical, Lolium perenne
Details: S-Golf biotype; 0-1000 μM glyphosate; log-logistic fit; unit from Methods (table footnote with unit not in the material); read-out: EPSPS activity^c / I50
Source text: EPSPS activity in leaf extract, phosphate release (EnzChek Phosphate Assay) on EPSPS (5-enolpyruvlshikimate-3-phosphate synthase), Golf biotypes

With `O=C(O)CNCP(=O)(O)O` [glyphosate, N-phosphonomethyl glycine] the IC50 was 3.2 ± 0.3 µM.
